From the NIST ThermoML archive (doi:10.1021/je5005752)

Assay: xn = mol fraction of the nth substance listed
Conditions: 101 kPa, Liquid; for viscosity: Falling or rolling sphere viscometry; for mass density: Vibrating tube method

CCCC(=O)OCC [ethyl butanoate] + CCCCCCO
Conditions	mass density [kg/m3]	viscosity [mPa·s]
288.15 K, x1 = 0.0997	828.32	4.176
288.15 K, x1 = 0.1998	834.25	2.965
288.15 K, x1 = 0.3002	840.39	2.214
288.15 K, x1 = 0.4	846.47	1.735
288.15 K, x1 = 0.5	852.62	1.399
288.15 K, x1 = 0.5998	858.84	1.17
288.15 K, x1 = 0.6999	865.11	0.9966
288.15 K, x1 = 0.7999	871.43	0.8726
288.15 K, x1 = 0.8998	877.77	0.7818
288.15 K, x1 = 1	884.16	0.7224
293.15 K, x1 = 0.0997	824.57	3.6
293.15 K, x1 = 0.1998	830.32	2.6
293.15 K, x1 = 0.3002	836.29	1.97
293.15 K, x1 = 0.4	842.19	1.563
293.15 K, x1 = 0.5	848.18	1.274
293.15 K, x1 = 0.5998	854.23	1.075
293.15 K, x1 = 0.6999	860.32	0.9233
293.15 K, x1 = 0.7999	866.48	0.8142
293.15 K, x1 = 0.8998	872.65	0.7339
293.15 K, x1 = 1	878.9	0.6808
298.15 K, x1 = 0.0997	820.8	3.124
298.15 K, x1 = 0.1998	826.39	2.295
298.15 K, x1 = 0.3002	832.17	1.762
298.15 K, x1 = 0.4	837.9	1.414
298.15 K, x1 = 0.5	843.72	1.166
298.15 K, x1 = 0.5998	849.59	0.991
298.15 K, x1 = 0.6999	855.52	0.857
298.15 K, x1 = 0.7999	861.51	0.761
298.15 K, x1 = 0.8998	867.52	0.6898
298.15 K, x1 = 1	873.62	0.643
303.15 K, x1 = 0.0997	817.02	2.731
303.15 K, x1 = 0.1998	822.43	2.038
303.15 K, x1 = 0.3002	828.03	1.585
303.15 K, x1 = 0.4	833.6	1.286
303.15 K, x1 = 0.5	839.24	1.069
303.15 K, x1 = 0.5998	844.95	0.9185
303.15 K, x1 = 0.6999	850.71	0.7979
303.15 K, x1 = 0.7999	856.53	0.7129
303.15 K, x1 = 0.8998	862.38	0.6492
303.15 K, x1 = 1	868.33	0.6072
308.15 K, x1 = 0.0997	813.22	2.403
308.15 K, x1 = 0.1998	818.46	1.819
308.15 K, x1 = 0.3002	823.88	1.433
308.15 K, x1 = 0.4	829.27	1.174
308.15 K, x1 = 0.5	834.75	0.9852
308.15 K, x1 = 0.5998	840.28	0.8501
308.15 K, x1 = 0.6999	845.88	0.7452
308.15 K, x1 = 0.7999	851.54	0.6686
308.15 K, x1 = 0.8998	857.23	0.6113
308.15 K, x1 = 1	863.02	0.5736
313.15 K, x1 = 0.0997	809.4	2.124
313.15 K, x1 = 0.1998	814.46	1.631
313.15 K, x1 = 0.3002	819.7	1.3
313.15 K, x1 = 0.4	824.92	1.076
313.15 K, x1 = 0.5	830.23	0.9099
313.15 K, x1 = 0.5998	835.6	0.7898
313.15 K, x1 = 0.6999	841.02	0.6964
313.15 K, x1 = 0.7999	846.52	0.6277
313.15 K, x1 = 0.8998	852.06	0.5762
313.15 K, x1 = 1	857.7	0.5425
318.15 K, x1 = 0.0997	805.54	1.887
318.15 K, x1 = 0.1998	810.43	1.469
318.15 K, x1 = 0.3002	815.5	1.184
318.15 K, x1 = 0.4	820.55	0.9878
318.15 K, x1 = 0.5	825.69	0.8422
318.15 K, x1 = 0.5998	830.89	0.7355
318.15 K, x1 = 0.6999	836.15	0.652
318.15 K, x1 = 0.7999	841.48	0.5903
318.15 K, x1 = 0.8998	846.86	0.544
318.15 K, x1 = 1	852.36	0.5132
323.15 K, x1 = 0.0997	801.66	1.7
323.15 K, x1 = 0.1998	806.38	1.332
323.15 K, x1 = 0.3002	811.27	1.089
323.15 K, x1 = 0.4	816.15	0.9186
323.15 K, x1 = 0.5	821.13	0.788
323.15 K, x1 = 0.5998	826.16	0.6919
323.15 K, x1 = 0.6999	831.25	0.6147
323.15 K, x1 = 0.7999	836.43	0.5594
323.15 K, x1 = 0.8998	841.64	0.5176
323.15 K, x1 = 1	847	0.487

CCCC(=O)OCC [ethyl butanoate] + CCCCO
Conditions	mass density [kg/m3]	viscosity [mPa·s]
288.15 K, x1 = 0.1	822.84	2.336
288.15 K, x1 = 0.2001	831.39	1.762
288.15 K, x1 = 0.2999	839.43	1.408
288.15 K, x1 = 0.3998	846.96	1.186
288.15 K, x1 = 0.5	854.06	1.022
288.15 K, x1 = 0.5999	860.72	0.9212
288.15 K, x1 = 0.6998	867	0.8393
288.15 K, x1 = 0.7999	872.95	0.785
288.15 K, x1 = 0.9001	878.66	0.7409
288.15 K, x1 = 1	884.16	0.7224
293.15 K, x1 = 0.1	818.8	2.037
293.15 K, x1 = 0.2001	827.16	1.581
293.15 K, x1 = 0.2999	835.01	1.279
293.15 K, x1 = 0.3998	842.37	1.085
293.15 K, x1 = 0.5	849.32	0.9419
293.15 K, x1 = 0.5999	855.86	0.8544
293.15 K, x1 = 0.6998	862.01	0.7817
293.15 K, x1 = 0.7999	867.86	0.7316
293.15 K, x1 = 0.9001	873.47	0.6958
293.15 K, x1 = 1	878.9	0.6808
298.15 K, x1 = 0.1	814.75	1.841
298.15 K, x1 = 0.2001	822.9	1.427
298.15 K, x1 = 0.2999	830.57	1.166
298.15 K, x1 = 0.3998	837.77	0.9988
298.15 K, x1 = 0.5	844.57	0.8734
298.15 K, x1 = 0.5999	850.97	0.7967
298.15 K, x1 = 0.6998	857	0.7315
298.15 K, x1 = 0.7999	862.74	0.6849
298.15 K, x1 = 0.9001	868.27	0.656
298.15 K, x1 = 1	873.62	0.643
303.15 K, x1 = 0.1	810.68	1.648
303.15 K, x1 = 0.2001	818.63	1.292
303.15 K, x1 = 0.2999	826.12	1.068
303.15 K, x1 = 0.3998	833.15	0.9215
303.15 K, x1 = 0.5	839.8	0.8111
303.15 K, x1 = 0.5999	846.07	0.7434
303.15 K, x1 = 0.6998	851.98	0.6856
303.15 K, x1 = 0.7999	857.62	0.6447
303.15 K, x1 = 0.9001	863.05	0.6181
303.15 K, x1 = 1	868.33	0.6072
308.15 K, x1 = 0.1	806.58	1.479
308.15 K, x1 = 0.2001	814.33	1.174
308.15 K, x1 = 0.2999	821.63	0.9797
308.15 K, x1 = 0.3998	828.5	0.852
308.15 K, x1 = 0.5	835.01	0.7542
308.15 K, x1 = 0.5999	841.14	0.6973
308.15 K, x1 = 0.6998	846.94	0.6428
308.15 K, x1 = 0.7999	852.47	0.6063
308.15 K, x1 = 0.9001	857.82	0.583
308.15 K, x1 = 1	863.02	0.5736
313.15 K, x1 = 0.1	802.44	1.342
313.15 K, x1 = 0.2001	809.99	1.078
313.15 K, x1 = 0.2999	817.12	0.9078
313.15 K, x1 = 0.3998	823.82	0.7938
313.15 K, x1 = 0.5	830.18	0.7053
313.15 K, x1 = 0.5999	836.19	0.6517
313.15 K, x1 = 0.6998	841.87	0.6037
313.15 K, x1 = 0.7999	847.3	0.57
313.15 K, x1 = 0.9001	852.56	0.5487
313.15 K, x1 = 1	857.7	0.5425
318.15 K, x1 = 0.1	798.28	1.204
318.15 K, x1 = 0.2001	805.63	0.9786
318.15 K, x1 = 0.2999	812.57	0.8314
318.15 K, x1 = 0.3998	819.12	0.7327
318.15 K, x1 = 0.5	825.33	0.6556
318.15 K, x1 = 0.5999	831.21	0.6088
318.15 K, x1 = 0.6998	836.78	0.5678
318.15 K, x1 = 0.7999	842.11	0.5382
318.15 K, x1 = 0.9001	847.29	0.5197
318.15 K, x1 = 1	852.36	0.5132
323.15 K, x1 = 0.1	794.08	1.109
323.15 K, x1 = 0.2001	801.22	0.9039
323.15 K, x1 = 0.2999	807.99	0.7743
323.15 K, x1 = 0.3998	814.38	0.685
323.15 K, x1 = 0.5	820.45	0.6163
323.15 K, x1 = 0.5999	826.2	0.5736
323.15 K, x1 = 0.6998	831.66	0.5372
323.15 K, x1 = 0.7999	836.9	0.5114
323.15 K, x1 = 0.9001	842	0.4942
323.15 K, x1 = 1	847	0.487
